Experimental data reported in patent publication US12655116B2, “Substituted isophthalic acid diamides” (Bayer Aktiengesellschaft, priority 2020, dated 2026).

Tests used:
AMARE [1] = assay: Pre-emergence herbicidal action against AMARE; format: in vivo, Amaranthus retroflexus
Procedure, shortened: (§1)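 Greenhouse pots of sandy loam held seeds covered with soil, onto which the compound was applied before emergence. An aqueous suspension or emulsion of WP or EC was used at 600 to 800 l/ha with 0.2% wetting agent. Percent damage was judged visually at 3 weeks.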

ECHCG [2] = assay: Pre-emergence herbicidal action against ECHCG; format: in vivo, Echinochloa crus-galli
Procedure, shortened: as §1

SETVI [3] = assay: Pre-emergence herbicidal action against SETVI; format: in vivo, Setaria viridis
Procedure, shortened: as §1

ABUTH [4] = assay: Post-emergence herbicidal action against ABUTH; format: in vivo, Abutilon theophrasti; settings: visual assessment about 3 weeks after treatment vs untreated controls
Procedure, shortened: (§2)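 Foliar application at one-leaf stage of formulated test compounds, aqueous spray at 600–800 l/ha with 0.2% wetting agent. Greenhouse, optimal conditions, ~3 weeks; damage scored visually in % relative to untreated plants.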

PHBPU [5] = assay: Post-emergence herbicidal action against PHBPU; format: in vivo, Pharbitis purpurea; settings: dosage 20 g/ha
Procedure, shortened: as §2

VIOTR [6] = assay: Pre-emergence herbicidal action against VIOTR; format: in vivo, Viola tricolor
Procedure, shortened: as §1

ABUTH [7] = assay: Pre-emergence herbicidal action against ABUTH; format: in vivo, Abutilon theophrasti; settings: for Pre-emergence action against ABUTH (herbicidal activity): 80 g/ha, scored visually after 3 weeks vs untreated controls (100% = plants have died, 0% = like control plants)
Procedure, shortened: as §1

MATIN [8] = assay: Pre-emergence herbicidal action against MATIN; format: in vivo, Matricaria inodora
Procedure, shortened: as §1

DIGSA [9] = assay: Pre-emergence herbicidal action against DIGSA; format: in vivo, Digitaria sanguinalis
Procedure, shortened: as §1

PHBPU [10] = assay: Pre-emergence herbicidal action against PHBPU; format: in vivo, Pharbitis purpurea; settings: dosage 80 g/ha
Procedure, shortened: as §1

ECHCG [11] = assay: Post-emergence herbicidal action against ECHCG; format: in vivo, Echinochloa crus-galli
Procedure, shortened: as §2

POLCO [12] = assay: Pre-emergence herbicidal action against POLCO; format: in vivo, Polygonum convolvulus
Procedure, shortened: as §1

ALOMY = assay: Pre-emergence herbicidal action against ALOMY; format: in vivo, Alopecurus myosuroides; settings: 80 g/ha, pre-emergence, scored visually after 3 weeks vs untreated controls (100% = plants have died, 0% = like control plants)
Procedure, shortened: as §1

POLCO [13] = assay: Post-emergence herbicidal action against POLCO; format: in vivo, Polygonum convolvulus; settings: dosage 20 g/ha
Protocol: Seeds of monocotyledonous and dicotyledonous weed and crop plants are laid out in sandy loam soil in wood-fiber pots, covered with soil and cultivated in a greenhouse under good growth conditions. 2 to 3 weeks after sowing, the test plants are treated at the one-leaf stage. The compounds of the invention, formulated in the form of wettable powders (WP) or as emulsion concentrates (EC), are then sprayed onto the green parts of the plants in the form of an aqueous suspension or emulsion at a water application rate equivalent to 600 to 800 l/ha, with addition of 0.2% wetting agent. After the test plants have been left to stand in the greenhouse under optimal growth conditions for about 3 weeks, the action of the preparations is assessed visually in comparison to untreated controls (herbicidal action in percent (%): 100% activity=the plants have died, 0% activity=like control plants). […] The tables below illustrate, in an illustrative manner, the post-emergence herbicidal action of the compounds of the invention, the herbicidal activity being stated in percent.

AVEFA = assay: Pre-emergence herbicidal action against AVEFA; format: in vivo, Avena fatua; settings: 80 g/ha, pre-emergence
Procedure, shortened: as §1

SETVI [14] = assay: Post-emergence herbicidal action against SETVI; format: in vivo, Setaria viridis
Procedure, shortened: as §2

VERPE [15] = assay: Pre-emergence herbicidal action against VERPE; format: in vivo, Veronica persica; settings: dosage 80 g/ha
Procedure, shortened: as §1

AMARE [16] = assay: Post-emergence herbicidal action against AMARE; format: in vivo, Amaranthus retroflexus; settings: 20 g/ha, visual assessment about 3 weeks after treatment, 100% = plants have died, 0% = like control plants
Procedure, shortened: as §2

DIGSA [17] = assay: Post-emergence herbicidal action against DIGSA; format: in vivo, Digitaria sanguinalis
Procedure, shortened: as §2

VERPE [18] = assay: Post-emergence herbicidal action against VERPE; format: in vivo, Veronica persica; settings: 20 g/ha
Procedure, shortened: as §2

VIOTR [19] = assay: Post-emergence herbicidal action against VIOTR; format: in vivo, Viola tricolor
Procedure, shortened: as §2

MATIN [20] = assay: Post-emergence herbicidal action against MATIN; format: in vivo, Matricaria inodora
Procedure, shortened: as §2

[21] = 20 g/ha, scored visually after 3 weeks vs untreated controls, 100% = plants have died, 0% = like control plants
[22] = 80 g/ha, scored visually after 3 weeks vs untreated controls (100% = plants have died, 0% = like control plants)

Structure (SMILES)	Pre-emergence action against AMARE in % (AMARE [1]; [21])	Pre-emergence action against AMARE in % (AMARE [1]; [22])	Pre-emergence action against ECHCG in % (ECHCG [2]; 80 g/ha)	Pre-emergence action against SETVI in % (SETVI [3]; dosage 80 g/ha)	Post-emergence action against ABUTH in % (ABUTH [4]; dosage 5 g/ha)	Post-emergence action against ABUTH in % (ABUTH [4]; dosage 20 g/ha)	Post-emergence action against PHBPU in % (PHBPU [5])	Pre-emergence action against VIOTR in % (VIOTR [6]; dosage 20 g/ha)	Pre-emergence action against VIOTR in % (VIOTR [6]; dosage 80 g/ha)	Pre-emergence action against ABUTH (herbicidal activity) (ABUTH [7])	Pre-emergence action against MATIN in % (MATIN [8]; dosage 20 g/ha)	Pre-emergence action against MATIN in % (MATIN [8]; dosage 80 g/ha)	Pre-emergence action against DIGSA in % (DIGSA [9]; dosage 20 g/ha)	Pre-emergence action against DIGSA in % (DIGSA [9]; dosage 80 g/ha)	Pre-emergence action against PHBPU in % (PHBPU [10])	Post-emergence action against ECHCG in % (ECHCG [11]; dosage 5 g/ha)	Post-emergence action against ECHCG in % (ECHCG [11]; dosage 20 g/ha)	Post-emergence action against POLCO in % (POLCO [13])	Post-emergence action against SETVI in % (SETVI [14]; dosage 20 g/ha)	further results
CCn1nnnc1NC(=O)c1ccc(C(F)(F)F)c(C(=O)NCC(F)F)c1C [Example 2-30]	100%	100%	100%	100%	80%	80%	90%	100%	100%	100%	100%	100%	100%	100%	80%	80%	80%	80%	80%	Pre-emergence action against SETVI in % (SETVI [3]; dosage 20 g/ha): 100%; Pre-emergence action against POLCO in % (POLCO [12]; dosage 20 g/ha): 80%; Pre-emergence action against POLCO in % (POLCO [12]; dosage 80 g/ha): 80%; Pre-emergence action against ALOMY (herbicidal activity) (ALOMY): 100%; Pre-emergence action against AVEFA in % (AVEFA): 100%
CCNC(=O)c1c(C(F)F)ccc(C(=O)Nc2nnnn2CC)c1C1CC1 [Example 2-305]	100%	100%	100%	80%	80%	90%	90%	90%	100%	100%	100%	100%	100%	100%	90%	90%	90%	100%	90%	Pre-emergence action against ECHCG in % (ECHCG [2]; 20 g/ha): 80%; Pre-emergence action against VERPE in % (VERPE [15]): 100%; Post-emergence action at 20 g/ha against AMARE in % (AMARE [16]): 100%; Post-emergence action against DIGSA in % (DIGSA [17]; 5 g/ha): 80%; Post-emergence action against DIGSA (DIGSA [17]; 20 g/ha): 90%; Pre-emergence action against ABUTH (herbicidal activity in percent) (ABUTH [7]; dosage 20 g/ha, scored visually after 3 weeks vs untreated controls, 100% = plants have died, 0% = like control plants): 100%; Post-emergence action against VERPE in % (VERPE [18]): 90%; Post-emergence action against VIOTR in % (VIOTR [19]; 5 g/ha): 80%; Post-emergence action against VIOTR in % (VIOTR [19]; 20 g/ha): 90%; Post-emergence action against MATIN in % (MATIN [20]; dosage 5 g/ha): 80%; Post-emergence action against MATIN in % (MATIN [20]; dosage 20 g/ha): 90%; Post-emergence action against SETVI in % (SETVI [14]; dosage 5 g/ha): 90%
